The test system of series [1] is SKBR-3 human breast cancer cells. The following applies: SKBR-3 cells; previously reported in Ramalingam S, et al.; read-out: GI50s SKBR-3; cited from earlier work.
The test system of series [2] is MDA-MB-468 human breast cancer cells. The following applies: MDA-MB-468 cells; previously reported in Ramalingam S, et al.; read-out: GI50s MDA-MB-468; cited from earlier work.
For series [3], the system named is LNCaP human prostate carcinoma cells. The following applies: previously reported in Ramamurthy V et al., read-out: GI50s LNCaP; cited from earlier work.
The test system of series [4] is PC-3 human prostate carcinoma cells. The following applies: PC-3 cells; previously reported in Ramamurthy V et al.; read-out: GI50s PC-3; cited from earlier work.
The test system of series [5] is MDA-MB-231 human breast cancer cells. The following applies: MDA-MB-231 cells; previously reported in Ramalingam S, et al.; read-out: GI50s MDA-MB-231; cited from earlier work.
For series [6], the system named is CWR22Rv1 human prostate carcinoma cells. The following applies: previously reported in Ramamurthy V et al., read-out: GI50s CWR22Rv1; cited from earlier work.
Series [7] shares this test system. The series is described as follows: MTT cell proliferation assay, CWR22Rv1. It is filed as cell-based. The following applies: SEM < 10%, read-out: GI50s CWR22Rv1. From the text: (§1) MCF-7, MDA-MB-231, MDA-MB-468 and SKBR-3 human breast cancer cells and LNCaP, PC-3, and CWR22Rv1 human prostate carcinoma cells (American Type Culture Collection, Manassas, Va., USA) were maintained in RPMI 1640 media (Gibco-Life Technologies, Grand Island, N.Y., USA) supplemented with 10% fetal bovine serum and 1% penicillin/streptomycin. Western blotting was done as mentioned previously,^8, 13b using the following antibodies: AR, Bad, Bax, Bcl-2, eIF4E, Mnk1, Mnk-2, N-cadherin, PARP, peIF4E^ser209 purchased from Cell Signaling Technology, Danvers, Mass., USA. Anti-Mnk2 was purchased from Sigma-Aldrich and normal rabbit IgG, cyclin D1 was from Santa Cruz Biotechnology, CA, USA.
(§2) Cells were plated (2500 cells/well) in 96 well plates and treated with or without specified compounds as described previously.^8a, 12b
(§3) The clinically relevant retinoids, ATRA and 4-HPR and the Mnk inhibitor, cercosporamide were used as comparators in the assays.
(§4) The PC-3 cell line was the least sensitive to all the compounds tested.

Series [8] concerns LNCaP human prostate carcinoma cells. As to the kind of experiment: MTT cell proliferation assay, LNCaP. It counts as cell-based. The following applies: SEM < 10%, read-out: GI50s LNCaP.
Source text: as §1, §2, §3, §4

Series [9] has as its system MCF-7, MDA-MB-231, MDA-MB-468 and SKBR-3 human breast cancer cells. As to the kind of experiment: MTT cell proliferation assay, four breast cancer cell lines together. It is filed as cell-based. The following applies: range across the four BC cell lines, read-out: GI50s, range over the BC cell lines.
Source text: as §1, §2, §3

Series [10] deals with fAR, Mnk1/2, peIF4E, cyclin D1 and cleaved PARP. The series is described as follows: Western blot of lysates from LNCaP cells. It is filed as cell-based, human. The following applies: 0.6-20 μM, 24 hours.
Source text: as §1
Equal protein concentrations from LNCaP cells treated with Compounds 16, 20 and 22 at different concentrations (0.6-20 μM) for 24 hours were separated by SDS-PAGE and western blots probed with antibodies to fAR, Mnk1/2, peIF4E, cyclin D1 and cleaved PARP. Vehicle treated cells were included as a control and all blots were reprobed for β-actin for loading control.

For series [11], the system named is MCF-7 human breast cancer cells. As to the kind of experiment: MTT cell proliferation assay, MCF-7. It is filed as cell-based. The following applies: Homo sapiens, MCF7; MCF-7 cells, MTT, SEM < 10%; read-out: GI50s MCF-7.
Source text: as §1, §2, §3

Series [12] deals with PC-3 human prostate carcinoma cells. As to the kind of experiment: MTT cell proliferation assay, PC-3. It counts as cell-based. The following applies: PC-3 cells, SEM < 10%, read-out: GI50s PC-3.
Source text: as §1, §2, §3, §4

Series [13] relates to MDA-MB-231 human breast cancer cells. As to the kind of experiment: MTT cell proliferation assay, MDA-MB-231. It is filed as cell-based. The following applies: MDA-MB-231 cells, SEM < 10%, read-out: GI50s MDA-MB-231.
Source text: as §1, §2, §3

For series [14], the system named is Mnk1 and 2, peIF4E, eIF4E and cPARP. As to the kind of experiment: Western blot of lysates from MCF-7, MDA-MB-231 and MDA-MB-468 cells. It counts as cell-based, human. The following applies: MCF-7, MDA-MB-231, MDA-MB-468 cells, 24 hours.
Source text: as §1
As we previously reported, the anti-proliferative effects of the 1st generation MNKDAs in BC cells was due to degradation of Mnk1/2 with subsequent depletion of peIF4E and induction of apoptosis.^8a To determine if these compounds modulate Mnk1/2 and related oncogenic proteins, the inventors performed western blot of lysates from MCF-7, MDA-MB-231 and MDA-MB-468 human breast cancer cells treated with Compounds 16, 20, and 22, or with vehicle (DMSO, negative control), or Compound 6 (positive control). Equal protein concentrations from MCF-7 (FIG. 3A), MDA-MB-231 (FIG. 3B) and MDA-MB-468 (FIG. 3C) cells treated for 24 hours with Compounds 16, 20 and 22 at the various concentrations as indicated and Compound 6 (20 μmol/L) were separated by SDS-PAGE and western blots probed with antibodies to Mnk1 and 2, peIF4E, eIF4E and cPARP. Vehicle treated cells were included as control and all blots were reprobed for GAPDH for loading control.

Series [15] has as its system SKBR-3 human breast cancer cells. The series is described as follows: MTT cell proliferation assay, SKBR-3. It counts as cell-based. The following applies: SK-BR-3, SKBR-3 cells, SEM < 10%, read-out: GI50s SKBR-3.
Source text: as §1, §2, §3

Another series has as its system PC-3 cells. As to the kind of experiment: Wound-healing assay, PC-3 cell migration. The following applies: 5 μM, 24 hours. It counts as cell-based, human. The method, then: (§5) Wound healing assay and matrigel invasion assay were also conducted as described previously using highly metastatic PC-3 cells following treatment with 5 μM of RRs for 24 h.^8a,26
(§6) Based on previous studies with closely related compound,^8 the inhibitory effects of Compounds 16, 20 and 22 on cell migration were evaluated, using the human metastatic PC cell line, PC-3 by wound-healing assay. PC-3 cells (5×10^5 cells/well) were seeded on Boyden chamber, grown to confluence and scratches made at experimental tome zero. The cells were treated with indicated compounds (5 μM each) for 24 hours. Representative photomicrographs of initial and final wounds are shown at 100× magnification. […] At 24 hours after cell monolayers were wounded, control cells had completely filled in the scratched area.

In series [16] the test system is MDA-MB-468 human breast cancer cells. The series is described as follows: MTT cell proliferation assay, MDA-MB-468. It is filed as cell-based. The following applies: MDA-MB-468 cells, SEM < 10%, read-out: GI50s MDA-MB-468.
Source text: as §1, §2, §3

In a further series the test system is MDA-MB-231 cells. The series is described as follows: Wound-healing assay, MDA-MB-231 cell migration. It is filed as cell-based, human. The following applies: 5 μM, 24 h. As to the method: as §5
as §6, with “BC” for “PC”, “MDA-MB-231” for “PC-3”, “h.” for “hours.”

Series [17] relates to Mnk-1, peIF4E and their downstream targets. The series is described as follows: Molecular analysis of MDA-MB-231 tumors. The following applies: MDA-MB-231 tumors from treated mice. It counts as in vivo. The source says: To assess their in vivo mode of action, we evaluated the effects of Compounds 20 and 22 on Mnk-1, peIF4E and their downstream targets.
For series [18], the system named is MDA-MB-231 xenograft tumors. The series is described as follows: MDA-MB-231 anti-tumor efficacy study (xenograft). It counts as in vivo. The method, then:
All animal studies were performed according to the guidelines and approval of the Animal Care Committee of the University of Maryland School of Medicine, Baltimore (UMB). Female Athymic Nude mice or male SCID (Charles Rivers Laboratories or UMB facilities) at 4-6 weeks of age were maintained in a pathogen-free environment. MDA-MB-231 (10×10^6) cells were subcutaneously implanted into Athymic Nude mice and CWR22Rv1 (1×10^6) cells into male SCID mice. Mice bearing established tumors (˜100 mm^3) were randomized into treatment groups of 6 and dosed with vehicle (40% β-cyclodexdrin in ddH2O), or compounds 20 and 22 (i.p., formulated in 40% β-cyclodexdrin in ddH2O, once daily, 5 days a week for 28 days).
The National Cancer Institute (NCI) criteria^23 were used to determine tumor growth efficacy of our compounds. Thus, percent test or treatment/control (% T/C), defined as the ratio of the median tumor volume for the treated group versus control group, was calculated as % T/C=[(median tumor volume of treated group at day 28)/(median tumor volume of control group at day 28)]×100.
Indeed, the two compounds were equipotent (FIG. 9A). […] Representative photos of the tumor-bearing mice in the control and the two treatment groups at termination of experiment (day 28) are presented in FIG. 9B.

[19] abbreviates: MDA-MB-231 xenograft mice, i.p. 20 mg/kg 5×/week over 28 days.

The structures appear in SMILES notation. Like-named read-outs stand apart in the source and are kept apart here.

Take `CC1=C(/C=C/C(C)=C/C=C/C(C)=C/C(=O)O)C(C)(C)CCC1` [ATRA, all-trans retinoic acid]: the IC50 was 22900 nM in [1]; 14100 nM in series [2]; 47900 nM in series [3]; 36300 nM in series [4]; 14100 nM in [5]; 25100 nM in series [6].
For `CC(=O)C1=C(O)C=C2Oc3c(C(N)=O)c(O)cc(O)c3[C@]2(C)C1=O` [Cerco., cercosporamide], the IC50 in [1] was 26000 nM; in [2], 47900 nM; in series [5], 43600 nM.
With `CC1=C(/C=C/C(C)=C/C=C/C(C)=C\C(=O)Nc2ccccc2)C(C)(C)CCC1n1ccnc1` (centres unmarked) [Compound 16, (2Z,4E,6E,8E)-9-(3-(1H-imidazol-1-yl)-2,6,6-trimethylcyclohex-1-en-1-yl)-3,7-dimethyl-N-phenylnona-2,4,6,8-tetraenamide], the IC50 in series [7] is 1280 nM; in series [8], 2690 nM; in series [9], 1740 to 2540 nM; in series [11] it was 1900 nM; in series [12], 8910 nM; in series [13], 1740 nM. Further, the IC50 worked out at 1730 nM in series [15] and 2540 nM in series [16]. Moreover, the “cleaved PARP (c-PARP)” value in series [10] is “induced cleaved PARP”. In addition, in series [10], the “cyclin D1” value is on record as “significant depletion”. Further, the “expression of total eIF4E” value in series [10] and in [14] was “no noticeable effects” each time. Besides, the “expressions of fAR, Mnk1 and Mnk2” value in series [10] is “significantly and in a dose-dependent fashion, reduced”. Further, the “expressions of Mnk1, Mnk2 and peIF4E” value in series [14] was “significantly and dose-dependently, reduced”. In series [14], the “formation of c-PARP (apoptosis)” value was “dose-dependent formation of c-PARP”. Also, the “migration of PC-3 cells” value in the series with PC-3 cells was “significantly inhibited migration”.
Consider `CC1=C(/C=C/C(C)=C/C=C/C(C)=C\C(=O)NCc2ccc(O)cc2)C(C)(C)CCC1n1ccnc1` (centres unmarked) [Compound 22, (2Z,4E,6E,8E)-9-(3-(1H-imidazol-1-yl)-2,6,6-trimethylcyclohex-1-en-1-yl)-N-(4-hydroxybenzyl)-3,7-dimethylnona-2,4,6,8-tetraenamide], for which the IC50 in [7] was 1860 nM. Also, the IC50 in series [8] was found to be 1690 nM. For the same compound, in series [10], the “cleaved PARP (c-PARP)” value is listed as “induced cleaved PARP”; the “cyclin D1” value is given as “significant depletion”; the “expression of total eIF4E” value is reported as “no noticeable effects”; the “expressions of fAR, Mnk1 and Mnk2” value is “significantly and in a dose-dependent fashion, reduced”. For the same compound, in [11], the IC50 was 160 nM. Also, the “migration of MDA-MB-231 cells” value with MDA-MB-231 cells is given as “significantly inhibited migration”. Also, the IC50 in [12] turned out to be 3540 nM. The IC50 in [13] was 2230 nM. In series [14], the “expression of total eIF4E” value is given as “no noticeable effects”; the “expressions of Mnk1, Mnk2 and peIF4E” value was “significantly and dose-dependently, reduced”; the “formation of c-PARP (apoptosis)” value was “dose-dependent formation of c-PARP”. Further, in series [17], the “Mnk1/2, peIF4E, cyclin D1 and Bcl-2 in tumors” value is given as “depletion”; the “pro-apoptotic proteins Bad and Bax in tumors” value is on record as “up-regulation”. In [15], the IC50 worked out at 2450 nM. In addition, in series [18] (setting [19]), the body weight entry is on record as “did not lose body weight” and the “signs of toxicity / adverse events” value is “no apparent adverse events”. In [18] (MDA-MB-231 xenografts, i.p. 20 mg/kg 5×/week over 28 days), the “suppression of tumor growth” value is 85.4%. Moreover, the “% T/C (treated/control median tumor volume)” value in [18] (MDA-MB-231 xenografts, i.p. 20 mg/kg 5×/week, day 28) is recorded as 14.6%. For the same compound, the “migration of PC-3 cells” value in the series with PC-3 cells is recorded as “significantly inhibited migration”. In addition, the IC50 in [16] is 2700 nM.

The values above are taken from US10793525B2, “13-cis-RAMBA retinamides that degrade MNKs for treating cancer” (UNIVERSITY OF MARYLAND, BALTIMORE, priority 2014, dated 2020).
